Legend:
E-cadherin = assay: Immunofluorescence staining in HCT116 cells; type: cell-based, human; conditions: 2 μM p < 0.05, 4 μM p < 0.001, 24 h
Method: (§1) HCT116 cells were used to ascertain the action of compound 15k on α-tubulin, E-cadherin and β-catenin. The cells were seeded on to culture glass covers inserted in 6 well plates. The compound was added at 0, 2, and 4μM and incubated with the cells overnight at 37°C. Paraformaldehyde (4%) was used for cell fixation, followed by permiabilization with 0.3% triton 100× in PBS for 25 min. The cells were blocked with 3% BSA in PBS for 30 min. The α-tubulin, E-cadherin, or β-catenin rabbit antibodies in the correct dilution were added, followed by fluorescent anti-rabbit secondary antibody in the same manner. The nuclei were stained with the nuclear dye, DAPI, for 15 min. The EVOS cell imaging system was used to detect the fluorescence from each slide.

α-tubulin = assay: Immunofluorescence staining in HCT116 cells; type: cell-based, human; conditions: 2 or 4 μM, overnight, p < 0.001 vs control
Method: as §1

β-catenin = assay: Immunofluorescence staining in HCT116 cells; type: cell-based, human; conditions: 2 and 4 μM, p < 0.01 vs vehicle
Method: as §1

HCT116 = assay: Cell cycle analysis (PI, flow cytometry); type: cell-based, human; conditions: 0, 2 or 4 μM, 12 h, data not shown
Method: Cell cycle analysis was performed as described previously (Pozarowski and Darzynkiewicz, [2004]). Briefly, a 6 well plate was used for the seeding of HCT116 at 1 × 10^6 cells/well. The next day, 15j and 15k (0, 2, or 4 μM) were added and incubated with the seeded cells. After 12 h, the cells were trypsinzed with 0.25% trypsin, 2.21 mM EDTA, 1X, washed, counted and resuspended in 0.5 ml of ice cold PBS. PI stain was added to each suspension for at least 15 min to stain the DNA. The cell cycle analysis and cell distribution for each phase was measured using a BD Accuri™ C6 flow cytometer (BD Biosciences, Becton-Dickinson, San Jose, CA, USA) and analyzed using FCS express 5 plus De Novo software (Glendale, CA, USA).

S1 = assay: MTT assay; type: cell-based; conditions: Homo sapiens, 72 h incubation, mean ± SD of three experiments, read-out: IC50 ± SD, Colon S1
Method: (§2) The 3-(4,5-dimethylthiazol-2-yl)-2,5-diphenyltetrazolium bromide (MTT) assay was used to determine the sensitivity of the different CRC cells to the novel silybin derivatives (Hussein et al., [2017]; Manivannan et al., [2017]). The cells were seeded at a density of 4,000–5,000 cells/well in 96 well plates and incubated with serial dilutions of the compounds (0, 0.1, 0.3, 1, 3, 10, 30, and 100 μM). The MTT dye (4 mg/ml) was added after 72 h of incubation and incubated with the cells for an additional 4 h at 37°C. Following incubation, the media was discarded and the formazan crystals were dissolved by adding 100 μL of DMSO to each well. A DTX 880 multimode detector (Beckman Coulter Life, Indianapolis IN, USA) was used to determine the absorbance readings at a wavelength of 570 nm. The IC50 values were determined based on 3 separate experiments, with each experiment done in triplicate. The selectivity of the compounds was determined by comparing their cytotoxicity for CRC to normal epithelial cell lines (CHO, and CRL1459).

LOVO = assay: MTT assay; type: cell-based; conditions: Homo sapiens, 72 h incubation, mean ± SD of three experiments, read-out: IC50 ± SD, Colon LOVO
Method: as §2

SMILES: O=C(/C=C/c1cccc(OCc2ccccc2)c1)c1ccc(O)cc1 [Compound 15k]
- E-cadherin expression (immunostaining) (E-cadherin): significantly increased
- α-tubulin green fluorescence (α-tubulin): significant reduction
- level of β-catenin available for nuclear translocation (immunostaining) (β-catenin): significant decrease
- effect on the cell cycle (HCT116): significant concentration-dependent increase in the number of cells in the G2 and S phases
- IC50 (S1): 1900 ± 900 nM
- IC50 (LOVO): 2300 ± 200 nM
